Experimental data from paper PMC7827406, “Structure–Activity Relationship (SAR) Study of Spautin-1 to Entail the Discovery of Novel NEK4 Inhibitors” (International Journal of Molecular Sciences, 2021).
Read-outs that look alike come from different tables or passages of the source.

Experiments:
Assay in all cases: biochemical
Design in all cases: Eurofins KinaseProfiler full panel at Km ATP, residual kinase activity (%) relative to DMSO
SGK3(h) = target: T1, SGK3(h) (Homo sapiens, UniProt Q96BR1)
T1 sequence (Q96BR1 1-496): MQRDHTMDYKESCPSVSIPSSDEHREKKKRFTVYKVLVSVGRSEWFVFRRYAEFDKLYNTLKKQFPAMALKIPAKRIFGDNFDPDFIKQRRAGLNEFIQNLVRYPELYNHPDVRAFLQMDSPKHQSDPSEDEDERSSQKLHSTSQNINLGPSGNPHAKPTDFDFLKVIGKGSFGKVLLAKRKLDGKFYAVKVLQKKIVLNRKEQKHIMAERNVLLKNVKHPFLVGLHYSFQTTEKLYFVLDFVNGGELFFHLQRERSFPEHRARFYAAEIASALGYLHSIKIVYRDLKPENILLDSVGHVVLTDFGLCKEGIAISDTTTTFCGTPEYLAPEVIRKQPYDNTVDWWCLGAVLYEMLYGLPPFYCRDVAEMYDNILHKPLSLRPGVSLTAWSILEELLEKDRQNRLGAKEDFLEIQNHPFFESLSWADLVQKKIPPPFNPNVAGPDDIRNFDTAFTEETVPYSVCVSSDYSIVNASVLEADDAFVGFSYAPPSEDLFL
Summary of the method: (§1)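 Radiometric kinase activity assays were run with ATP at Km and compounds at 10 µM, and remaining activity (%) was reported. A separate competitive binding screen measured DNA-tagged kinase displaced from immobilized active-site ligands by qPCR, giving percent kinase still bound at 10 µM compound in DMSO.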

[1] = target: T2, PI3 Kinase (p110a(E545K)/p85a)(m) (Mus musculus, UniProt P42337, E545K)
T2 construct: gene Pik3ca
Summary of the method: as §1

IRE1(h) = target: T3, IRE1(h) (Homo sapiens, UniProt O75460)
T3 construct: gene ERN1
Summary of the method: as §1

FGFR4(h) = FGFR4(h) (Homo sapiens, UniProt P22455)
Summary of the method: as §1

Abl (H396P) (h) = target: T4, Abl (H396P) (h) (Homo sapiens, UniProt P00519, H396P)
T4 construct: gene ABL1
Summary of the method: as §1

EphB3(h) = target: T5, EphB3(h) (Homo sapiens, UniProt P54753)
T5 sequence (P54753 1-998): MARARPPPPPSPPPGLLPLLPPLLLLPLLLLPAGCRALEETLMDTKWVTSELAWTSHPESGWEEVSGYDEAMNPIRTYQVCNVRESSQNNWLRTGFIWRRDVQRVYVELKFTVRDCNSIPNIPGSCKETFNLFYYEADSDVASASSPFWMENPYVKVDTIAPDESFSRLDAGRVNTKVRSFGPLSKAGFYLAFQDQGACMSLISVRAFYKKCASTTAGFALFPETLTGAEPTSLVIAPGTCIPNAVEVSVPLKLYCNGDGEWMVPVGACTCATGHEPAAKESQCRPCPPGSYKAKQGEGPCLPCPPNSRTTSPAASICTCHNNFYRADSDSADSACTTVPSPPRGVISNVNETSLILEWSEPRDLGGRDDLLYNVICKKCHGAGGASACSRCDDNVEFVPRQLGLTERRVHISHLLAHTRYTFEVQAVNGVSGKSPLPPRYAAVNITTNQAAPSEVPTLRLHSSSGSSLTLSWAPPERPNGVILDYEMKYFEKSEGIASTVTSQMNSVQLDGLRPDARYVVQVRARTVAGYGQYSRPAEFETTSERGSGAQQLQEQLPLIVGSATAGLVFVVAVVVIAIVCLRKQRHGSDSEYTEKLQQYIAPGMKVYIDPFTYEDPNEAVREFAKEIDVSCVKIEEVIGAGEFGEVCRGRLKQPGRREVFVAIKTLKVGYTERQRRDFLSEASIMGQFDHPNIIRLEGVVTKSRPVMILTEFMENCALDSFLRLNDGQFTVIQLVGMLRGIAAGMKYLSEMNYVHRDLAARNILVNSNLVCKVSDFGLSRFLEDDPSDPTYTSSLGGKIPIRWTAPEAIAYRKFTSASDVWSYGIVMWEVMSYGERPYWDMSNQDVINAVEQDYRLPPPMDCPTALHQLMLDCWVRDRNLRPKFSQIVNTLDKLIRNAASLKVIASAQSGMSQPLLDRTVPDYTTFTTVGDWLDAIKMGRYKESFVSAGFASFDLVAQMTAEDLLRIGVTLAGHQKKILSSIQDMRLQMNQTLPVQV
Summary of the method: as §1

p70S6K(h) = target: T6, p70S6K(h) (Homo sapiens, UniProt P23443)
T6 construct: gene RPS6KB1
Summary of the method: as §1

TLK2(h) = TLK2(h) (Homo sapiens, UniProt Q86UE8)
Summary of the method: as §1

PhKγ1(h) = target: T7, PhKγ1(h) (Homo sapiens, UniProt Q16816)
T7 construct: gene PHKG1
Summary of the method: as §1

ErbB2(h) = ErbB2(h) (Homo sapiens, UniProt P04626)
Summary of the method: as §1

[2] = read-out: Residual activity (%) Spautin-1 5aa
[3] = read-out: Residual activity (%) 5as
[4] = read-out: Residual activity (%) 5at
[5] = read-out: Residual activity (%) 5ay

T2 sequence (P42337 whole entry E545K): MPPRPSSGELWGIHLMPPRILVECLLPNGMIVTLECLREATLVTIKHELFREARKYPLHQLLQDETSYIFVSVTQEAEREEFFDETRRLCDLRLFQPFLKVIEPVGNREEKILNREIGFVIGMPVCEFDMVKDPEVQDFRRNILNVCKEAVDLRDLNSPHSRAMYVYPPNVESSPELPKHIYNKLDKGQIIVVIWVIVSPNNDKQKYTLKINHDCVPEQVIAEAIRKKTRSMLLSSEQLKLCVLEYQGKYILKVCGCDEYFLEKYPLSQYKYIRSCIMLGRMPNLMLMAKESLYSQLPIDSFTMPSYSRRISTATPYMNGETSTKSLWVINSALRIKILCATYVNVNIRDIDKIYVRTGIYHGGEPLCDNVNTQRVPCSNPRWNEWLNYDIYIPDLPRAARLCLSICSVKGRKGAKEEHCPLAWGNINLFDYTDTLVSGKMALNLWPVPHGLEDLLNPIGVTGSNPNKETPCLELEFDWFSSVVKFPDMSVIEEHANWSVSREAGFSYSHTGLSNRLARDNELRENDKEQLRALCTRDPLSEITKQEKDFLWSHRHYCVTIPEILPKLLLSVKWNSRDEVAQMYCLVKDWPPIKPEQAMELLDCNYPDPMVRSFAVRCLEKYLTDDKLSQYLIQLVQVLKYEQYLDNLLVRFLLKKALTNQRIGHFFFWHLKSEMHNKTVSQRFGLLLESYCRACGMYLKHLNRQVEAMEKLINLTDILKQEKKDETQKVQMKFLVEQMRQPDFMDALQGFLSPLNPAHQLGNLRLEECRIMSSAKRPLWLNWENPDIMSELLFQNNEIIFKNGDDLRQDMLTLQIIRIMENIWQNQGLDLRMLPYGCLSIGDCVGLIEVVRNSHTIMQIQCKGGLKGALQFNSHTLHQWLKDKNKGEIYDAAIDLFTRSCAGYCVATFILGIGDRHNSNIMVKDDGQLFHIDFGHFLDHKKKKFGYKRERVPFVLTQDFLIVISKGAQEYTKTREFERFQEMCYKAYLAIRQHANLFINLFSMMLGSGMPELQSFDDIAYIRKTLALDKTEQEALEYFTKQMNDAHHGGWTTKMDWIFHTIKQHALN
T2 sequence (P26450 whole entry partner): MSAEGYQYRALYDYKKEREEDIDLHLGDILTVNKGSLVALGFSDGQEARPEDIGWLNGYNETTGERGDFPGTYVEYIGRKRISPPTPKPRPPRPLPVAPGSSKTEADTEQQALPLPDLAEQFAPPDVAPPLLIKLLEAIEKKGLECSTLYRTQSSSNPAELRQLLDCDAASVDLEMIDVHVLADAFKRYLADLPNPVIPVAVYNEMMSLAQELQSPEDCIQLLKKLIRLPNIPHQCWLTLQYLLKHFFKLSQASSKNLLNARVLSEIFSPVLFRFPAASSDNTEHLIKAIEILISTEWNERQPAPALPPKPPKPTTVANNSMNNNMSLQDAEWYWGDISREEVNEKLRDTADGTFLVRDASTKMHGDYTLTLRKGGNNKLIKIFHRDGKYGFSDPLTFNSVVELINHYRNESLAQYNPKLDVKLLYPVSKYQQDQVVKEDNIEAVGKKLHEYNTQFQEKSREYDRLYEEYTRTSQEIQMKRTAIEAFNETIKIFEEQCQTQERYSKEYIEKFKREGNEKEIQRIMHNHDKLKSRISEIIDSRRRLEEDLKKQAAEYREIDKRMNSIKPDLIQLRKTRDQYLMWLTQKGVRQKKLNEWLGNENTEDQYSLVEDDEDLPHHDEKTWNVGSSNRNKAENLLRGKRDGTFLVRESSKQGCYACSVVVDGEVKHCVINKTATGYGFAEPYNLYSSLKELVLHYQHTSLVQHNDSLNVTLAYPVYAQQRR
T6 sequence (P23443 whole entry): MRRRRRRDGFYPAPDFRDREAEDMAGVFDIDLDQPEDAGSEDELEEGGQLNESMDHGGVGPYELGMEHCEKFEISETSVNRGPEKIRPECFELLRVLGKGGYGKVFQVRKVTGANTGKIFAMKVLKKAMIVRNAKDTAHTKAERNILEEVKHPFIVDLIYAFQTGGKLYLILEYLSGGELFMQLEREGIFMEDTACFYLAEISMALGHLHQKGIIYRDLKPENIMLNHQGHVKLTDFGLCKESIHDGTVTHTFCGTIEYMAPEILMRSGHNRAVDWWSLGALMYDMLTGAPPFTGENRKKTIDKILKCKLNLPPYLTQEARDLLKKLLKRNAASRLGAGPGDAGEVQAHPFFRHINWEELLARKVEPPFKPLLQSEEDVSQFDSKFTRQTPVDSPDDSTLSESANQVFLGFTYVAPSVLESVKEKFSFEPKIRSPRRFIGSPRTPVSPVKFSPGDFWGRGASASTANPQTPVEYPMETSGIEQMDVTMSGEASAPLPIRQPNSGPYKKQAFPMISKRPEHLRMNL
T3 sequence (O75460 whole entry): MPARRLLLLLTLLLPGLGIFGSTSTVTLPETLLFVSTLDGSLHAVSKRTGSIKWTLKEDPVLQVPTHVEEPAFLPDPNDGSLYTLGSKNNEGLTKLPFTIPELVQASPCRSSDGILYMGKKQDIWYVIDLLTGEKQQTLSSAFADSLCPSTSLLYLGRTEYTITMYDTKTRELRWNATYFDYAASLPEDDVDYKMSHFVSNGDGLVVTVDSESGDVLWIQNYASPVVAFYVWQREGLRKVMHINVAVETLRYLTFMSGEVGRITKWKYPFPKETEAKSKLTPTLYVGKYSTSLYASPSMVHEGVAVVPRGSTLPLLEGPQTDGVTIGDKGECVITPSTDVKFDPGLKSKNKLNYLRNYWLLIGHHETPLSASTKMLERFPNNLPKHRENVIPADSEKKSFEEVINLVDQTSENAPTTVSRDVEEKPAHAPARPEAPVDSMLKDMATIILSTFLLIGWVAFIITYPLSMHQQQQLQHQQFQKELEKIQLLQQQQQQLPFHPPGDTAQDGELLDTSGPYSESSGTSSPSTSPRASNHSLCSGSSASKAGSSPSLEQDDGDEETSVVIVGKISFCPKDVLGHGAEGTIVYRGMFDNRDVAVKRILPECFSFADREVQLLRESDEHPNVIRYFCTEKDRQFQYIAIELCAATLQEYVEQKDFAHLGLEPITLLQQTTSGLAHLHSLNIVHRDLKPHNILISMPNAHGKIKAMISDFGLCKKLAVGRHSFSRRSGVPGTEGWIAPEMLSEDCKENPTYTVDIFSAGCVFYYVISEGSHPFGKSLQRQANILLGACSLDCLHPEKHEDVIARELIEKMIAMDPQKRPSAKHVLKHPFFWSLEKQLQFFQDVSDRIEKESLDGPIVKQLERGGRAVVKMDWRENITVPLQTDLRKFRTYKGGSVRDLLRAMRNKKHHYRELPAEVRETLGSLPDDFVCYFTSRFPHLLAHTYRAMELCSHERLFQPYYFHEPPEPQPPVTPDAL
T7 sequence (Q16816 whole entry): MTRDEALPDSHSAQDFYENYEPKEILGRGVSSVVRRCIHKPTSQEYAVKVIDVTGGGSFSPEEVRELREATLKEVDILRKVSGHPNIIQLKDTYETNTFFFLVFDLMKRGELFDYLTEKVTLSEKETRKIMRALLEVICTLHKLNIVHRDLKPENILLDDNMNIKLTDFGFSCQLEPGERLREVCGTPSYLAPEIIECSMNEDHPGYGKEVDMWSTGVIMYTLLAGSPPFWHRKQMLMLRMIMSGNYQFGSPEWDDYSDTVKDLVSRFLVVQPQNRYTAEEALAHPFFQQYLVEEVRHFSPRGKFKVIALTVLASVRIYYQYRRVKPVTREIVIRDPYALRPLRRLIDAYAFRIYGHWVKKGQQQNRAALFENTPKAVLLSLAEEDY
Chain of TLK2(h) (Q86UE8 whole entry): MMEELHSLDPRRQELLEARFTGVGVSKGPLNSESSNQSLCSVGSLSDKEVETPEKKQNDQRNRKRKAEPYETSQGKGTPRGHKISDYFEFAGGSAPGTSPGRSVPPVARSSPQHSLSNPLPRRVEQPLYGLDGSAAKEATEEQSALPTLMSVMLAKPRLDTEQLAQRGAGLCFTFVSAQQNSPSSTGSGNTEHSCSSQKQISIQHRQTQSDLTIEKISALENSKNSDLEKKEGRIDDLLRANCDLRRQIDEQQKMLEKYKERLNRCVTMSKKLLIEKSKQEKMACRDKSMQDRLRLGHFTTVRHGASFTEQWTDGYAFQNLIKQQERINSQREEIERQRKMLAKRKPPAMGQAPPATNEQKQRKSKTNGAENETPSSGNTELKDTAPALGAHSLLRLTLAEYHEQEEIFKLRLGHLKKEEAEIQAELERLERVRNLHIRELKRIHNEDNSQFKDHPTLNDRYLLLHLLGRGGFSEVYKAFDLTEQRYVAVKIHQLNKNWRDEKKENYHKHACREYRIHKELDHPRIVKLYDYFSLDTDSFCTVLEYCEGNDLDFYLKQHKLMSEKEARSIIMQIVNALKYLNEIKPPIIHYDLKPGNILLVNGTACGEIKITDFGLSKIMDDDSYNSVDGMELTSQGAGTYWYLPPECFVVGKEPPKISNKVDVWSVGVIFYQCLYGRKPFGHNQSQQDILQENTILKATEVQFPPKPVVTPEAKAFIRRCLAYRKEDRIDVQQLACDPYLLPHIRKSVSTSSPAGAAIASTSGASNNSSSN

Q: How did the remaining activity at 10 µM (SGK3(h); [2]) turn out when Fc1ccc(CNc2ncnc3ccc(F)cc23)cc1 [5aa, 6-Fluoro-N-(4-fluorobenzyl)-4-Quinazolinamine] was run?
A: 95%

Q: What about the remaining activity at 10 µM [1, 2] of the same compound?
A: 94%

Q: And the remaining activity at 10 µM (IRE1(h); [2])?
A: 99%

Q: And the remaining activity at 10 µM (FGFR4(h); [2])?
A: 99%

Q: And the remaining activity at 10 µM (Abl (H396P) (h); [2])?
A: 95%

Q: And the remaining activity at 10 µM (EphB3(h); [2])?
A: 93%

Q: What about the remaining activity at 10 µM (p70S6K(h); [2]) of the same compound?
A: 91%

Q: What about the remaining activity at 10 µM (TLK2(h); [2]) of the same compound?
A: 99%

Q: And the remaining activity at 10 µM (PhKγ1(h); [2])?
A: 102%

Q: What about the remaining activity at 10 µM (ErbB2(h); [2]) of the same compound?
A: 74%

Q: For Fc1ccc(CCNc2ncnc3ccc(F)cc23)cc1 [5as, 6-Fluoro-N-[2-(4-Fluorophenyl)Ethyl]-4-Quinazolinamine], which remaining activity at 10 µM (SGK3(h); [3]) is on record?
A: 88%

Q: What about the remaining activity at 10 µM [1, 3] of the same compound?
A: 91%

Q: And the remaining activity at 10 µM (IRE1(h); [3])?
A: 89%

Q: And the remaining activity at 10 µM (FGFR4(h); [3])?
A: 93%

Q: What about the remaining activity at 10 µM (Abl (H396P) (h); [3]) of the same compound?
A: 86%

Q: What about the remaining activity at 10 µM (EphB3(h); [3]) of the same compound?
A: 79%

Q: What about the remaining activity at 10 µM (p70S6K(h); [3]) of the same compound?
A: 81%

Q: And the remaining activity at 10 µM (TLK2(h); [3])?
A: 98%

Q: And the remaining activity at 10 µM (PhKγ1(h); [3])?
A: 120%

Q: What about the remaining activity at 10 µM (ErbB2(h); [3]) of the same compound?
A: 79%

Q: Fc1ccc2ncnc(NCCc3ccc(Cl)cc3)c2c1 [5at, N-[2-(4-Chlorophenyl)Ethyl]-6-Fluoro-4-Quinazolinamine] was tested. Which remaining activity at 10 µM (SGK3(h); [4]) did it give?
A: 93%

Q: What about the remaining activity at 10 µM [1, 4] of the same compound?
A: 91%

Q: And the remaining activity at 10 µM (IRE1(h); [4])?
A: 88%

Q: What about the remaining activity at 10 µM (FGFR4(h); [4]) of the same compound?
A: 96%

Q: What about the remaining activity at 10 µM (Abl (H396P) (h); [4]) of the same compound?
A: 80%

Q: And the remaining activity at 10 µM (EphB3(h); [4])?
A: 76%

Q: And the remaining activity at 10 µM (p70S6K(h); [4])?
A: 83%

Q: What about the remaining activity at 10 µM (TLK2(h); [4]) of the same compound?
A: 103%

Q: What about the remaining activity at 10 µM (PhKγ1(h); [4]) of the same compound?
A: 141%

Q: What about the remaining activity at 10 µM (ErbB2(h); [4]) of the same compound?
A: 65%

Q: For COc1ccc2ncnc(Nc3cccc(F)c3)c2c1 [5ay, N-(3-Fluorophenyl)-6-Methoxy-4-Quinazolinamine], which remaining activity at 10 µM (SGK3(h); [5]) is on record?
A: 91%

Q: And the remaining activity at 10 µM [1, 5]?
A: 91%

Q: And the remaining activity at 10 µM (IRE1(h); [5])?
A: 83%

Q: What about the remaining activity at 10 µM (FGFR4(h); [5]) of the same compound?
A: 98%

Q: What about the remaining activity at 10 µM (Abl (H396P) (h); [5]) of the same compound?
A: 76%

Q: What about the remaining activity at 10 µM (EphB3(h); [5]) of the same compound?
A: 84%

Q: What about the remaining activity at 10 µM (p70S6K(h); [5]) of the same compound?
A: 76%

Q: And the remaining activity at 10 µM (TLK2(h); [5])?
A: 97%

Q: What about the remaining activity at 10 µM (PhKγ1(h); [5]) of the same compound?
A: 121%

Q: And the remaining activity at 10 µM (ErbB2(h); [5])?
A: 20%
